Data from patent US9884063B2, “Amido-substituted azole compounds” (Bayer Pharma Aktiengesellschaft, priority 2014, dated 2018).

Legend:
[1] = molecular target: T1, TNKS2 (Homo sapiens, UniProt Q9H2K2); assay: Modified TNKS2 Assay 3 (BPS kit #80578, biotin-NAD+, 96 well); format: biochemical; conditions: human TNKS2, BPS kit #80578, 96 well
T1 sequence (Q9H2K2 1-1166): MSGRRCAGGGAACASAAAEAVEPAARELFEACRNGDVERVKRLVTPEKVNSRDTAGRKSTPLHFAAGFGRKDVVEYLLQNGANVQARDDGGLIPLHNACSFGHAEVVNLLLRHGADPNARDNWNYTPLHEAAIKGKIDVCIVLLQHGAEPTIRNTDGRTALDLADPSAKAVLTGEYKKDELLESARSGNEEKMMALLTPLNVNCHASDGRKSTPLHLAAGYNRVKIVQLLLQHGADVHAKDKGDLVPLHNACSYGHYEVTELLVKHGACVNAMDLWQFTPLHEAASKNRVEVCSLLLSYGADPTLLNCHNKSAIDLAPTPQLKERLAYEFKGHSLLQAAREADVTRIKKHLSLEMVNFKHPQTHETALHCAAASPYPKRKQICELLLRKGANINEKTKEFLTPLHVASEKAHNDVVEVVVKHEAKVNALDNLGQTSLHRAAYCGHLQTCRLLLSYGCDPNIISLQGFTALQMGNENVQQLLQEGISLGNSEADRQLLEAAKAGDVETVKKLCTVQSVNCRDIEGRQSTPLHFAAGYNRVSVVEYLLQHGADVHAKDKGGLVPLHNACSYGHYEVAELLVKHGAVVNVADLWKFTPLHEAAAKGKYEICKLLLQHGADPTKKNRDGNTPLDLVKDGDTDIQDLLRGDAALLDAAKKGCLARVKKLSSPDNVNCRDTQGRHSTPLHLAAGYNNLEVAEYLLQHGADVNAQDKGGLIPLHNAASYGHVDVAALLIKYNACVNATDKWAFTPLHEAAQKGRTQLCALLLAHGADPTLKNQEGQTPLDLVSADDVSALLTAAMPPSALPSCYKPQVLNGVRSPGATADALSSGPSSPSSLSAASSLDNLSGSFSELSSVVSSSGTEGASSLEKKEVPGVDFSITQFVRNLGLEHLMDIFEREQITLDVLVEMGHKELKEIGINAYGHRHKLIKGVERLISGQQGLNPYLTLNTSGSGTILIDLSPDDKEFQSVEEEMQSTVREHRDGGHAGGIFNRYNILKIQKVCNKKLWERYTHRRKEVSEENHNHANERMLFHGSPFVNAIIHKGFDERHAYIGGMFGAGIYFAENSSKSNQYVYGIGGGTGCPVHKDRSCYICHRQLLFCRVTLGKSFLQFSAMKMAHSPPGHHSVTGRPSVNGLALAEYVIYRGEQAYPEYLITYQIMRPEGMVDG
Procedure, shortened: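 Commercial kit assay measuring TNKS2-catalysed incorporation of biotin-labelled NAD+ into a protein substrate, detected by streptavidin-HRP chemiluminescence. Run per manufacturer's protocol; IC50 is the concentration halving the normalised signal.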

[2] = molecular target: T1, TNKS2; assay: Modified TNKS2 Assay 2 (auto-parsylation, [3H]-NAD+ SPA); format: biochemical; conditions: 6 nM TNKS2, 96 well
[3] = system: HEK293 FOP control reporter cell line; assay: HEK293 FOP Assay (FOP control vector luciferase reporter); format: cell-based; conditions: Homo sapiens; HEK293 FOP control reporter cell line, 16 hours incubation, compound dilution series 50 μM to 15 nM
Procedure, shortened: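 Stable HEK293 line carrying the FOP vector (randomized, non-functional TCF sites; Geneticin-selected) was run in parallel with the TOP line. Cells were plated 24 h ahead at 10000/well and given recombinant human Wnt-3a at 2500–5 ng/ml. Compounds were tested at 50 μM–15 nM (3.16-fold steps) in CAFTY buffer, pH 7.4, with 2 mM Ca2+ and 0.01% BSA.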

CNC(=O)c1nc[nH]c1C(=O)Nc1ccc(NC(=O)c2ccc(F)cc2Cl)c(OC)c1 [Example 95, N^5-{4-[(2-chloro-4-fluorobenzoyl)amino]-3-methoxyphenyl}-N^4-methyl-1H-imidazole-4,5-dicarboxamide]
IC50 [1]: 60 nM
IC50 [2]: 470 nM

COc1cc(NC(=O)c2[nH]cnc2C(=O)NCCN2CCCCC2)ccc1NC(=O)c1ccc(F)cc1Cl [Example 97, N^5-{4-[(2-chloro-4-fluorobenzoyl)amino]-3-methoxyphenyl}-N^4-[2-(piperidin-1-yl)ethyl]-1H-imidazole-4,5-dicarboxamide]
IC50 [1]: 20 nM
IC50 [2]: 5 nM
IC50 [3]: 29000 nM

CCN1CCCC1CNC(=O)c1nc[nH]c1C(=O)Nc1ccc(NC(=O)c2ccc(F)cc2Cl)cc1 (stereo not shown) [Example 390, N^5-{4-[(2-chloro-4-fluorobenzoyl)amino]phenyl}-N^4-[(1-ethylpyrrolidin-2-yl)methyl]-1H-imidazole-4,5-dicarboxamide]
IC50 [1]: 3 nM
IC50 [3]: 18000 nM

CN1CCN(CCCNC(=O)c2nc[nH]c2C(=O)Nc2ccc(NC(=O)c3ccc(F)cc3Cl)cc2)CC1 [Example 392, N^5-{4-[(2-chloro-4-fluorobenzoyl)amino]phenyl}-N^4-[3-(4-methylpiperazin-1-yl)propyl]-1H-imidazole-4,5-dicarboxamide]
IC50 [1]: 7 nM
IC50 [3]: 18000 nM

CC1CCN(CCCNC(=O)c2nc[nH]c2C(=O)Nc2ccc(NC(=O)c3ccc(F)cc3Cl)cc2)CC1 [Example 400, N^5-{4-[(2-chloro-4-fluorobenzoyl)amino]phenyl}-N^4-[3-(4-methylpiperidin-1-yl)propyl]-1H-imidazole-4,5-dicarboxamide]
IC50 [1]: 20 nM
IC50 [3]: 13000 nM

CCN1CCC[C@H]1CNC(=O)c1nc[nH]c1C(=O)Nc1ccc(NC(=O)c2ccc(F)cc2Cl)cc1 [Example 404, N^5-{4-[(2-chloro-4-fluorobenzoyl)amino]phenyl}-N^4-{[(2S)-1-ethylpyrrolidin-2-yl]methyl}-1H-imidazole-4,5-dicarboxamide]
IC50 [1]: 0.7 nM
IC50 [3]: 29000 nM
